Results published in EP0290003A2, “Imidazoles” (Byk Gulden Lomberg Chemische Fabrik GmbH, priority 1987, dated 1988).
Read-outs that look alike come from different tables or passages of the source.

Tested on: modifizierten Shay-Ratte
Assay: Antiulcerogenic and secretion-inhibiting effect in the modified Shay rat (pylorus ligation + oral acetylsalicylic acid)
Format: in vivo
Settings: for Magenschutzwirkung: Minderung des Läsionsindexes (%) / Säuresekretionshemmung: Verringerung der HCl-Sekretion (%): versus control group, 4 h after pylorus ligation; for ED50: iv, 4 h, i.v.
Excerpt: Prüfung der antiulcerogenen und sekretionshemmenden Wirkung an der modifizierten Shay-Ratte
In der folgenden Tabelle 1 ist der Einfluß der erfindungsgemäßen Verbindungen nach intravenöser (i. v.) Gabe auf die Läsionsbildung sowie die Säureausscheidung bei der modifizierten Shay-Ratte dargestellt.
Die Ulcusprovokation erfolgt an 24 Stunden nüchternen Ratten (weiblich, 180-200 g, 4 Tiere je Käfig auf hohem Gitterrost) durch Pylorusligatur (unter Diethylethernarkose) und orale Applikation von 100 mg/10ml/kg Acetylsalicylsäure. Die zu prüfenden Substanzen werden intravenös (1 ml/kg) unmittelbar nach der Pylorusligatur verabreicht. Der Wundverschluß wird mittels Michelklammern vorgenommen. 4 Stunden danach erfolgt die Tötung der Tiere im Etherrausch durch Atlas-Dislokation und die Resektion des Magens.
Der Magen wird längs der großen Kurvatur eröffnet und auf einer Korkplatte aufgespannt, nachdem zuvor die Menge des sezernierten Magensaftes (Volumen) und später sein HCl-Gehalt (Titration mit Natronlauge) bestimmt wird. Mit einem Stereomikroskop werden bei 10-facher Vergrößerung Anzahl und Größe (=Durch-messer) vorhandener Ulcera ermittelt. Das Produkt aus Schweregrad (gemäß nachfolgender Punkteskala) und Anzahl der Ulcera dient als individueller Läsionsindex.
Als Maß für den antiulcerogenen Effekt dient die Minderung des mittleren Lä-sionsindex jeder behandelten Gruppe gegenüber dem der Kontrollgruppe (=100 %). Die ED50 bezeichnet diejenige Dosis, die den mittleren Lösionsindex bzw. die HCl-Sektetion gegenüber der Kontrolle um 50 % mindert.

[1] = Rattus norvegicus, interpolated dose reducing the lesion index by 50 % versus control group, read-out: Magenschutzwirkung: ca. ED50 (µmol/kg) i.v.
[2] = interpolated dose reducing the HCl secretion of the rat stomach by 50 % versus control group, read-out: Säuresekretionshemmung: ca. ED50 (µmol/kg) i.v.

Structure (SMILES) | Magenschutzwirkung: Minderung des Läsionsindexes (%) (Dosis 0,1 µmol/kg i.v.) | Säuresekretionshemmung: Verringerung der HCl-Sekretion (%) (Dosis 0,1 µmol/kg i.v.) | Magenschutzwirkung: Minderung des Läsionsindexes (%) (Dosis 0,3 µmol/kg i.v.) | Säuresekretionshemmung: Verringerung der HCl-Sekretion (%) (Dosis 0,3 µmol/kg i.v.) | Magenschutzwirkung: Minderung des Läsionsindexes (%) (Dosis 1,0 µmol/kg i.v.) | Säuresekretionshemmung: Verringerung der HCl-Sekretion (%) (Dosis 1,0 µmol/kg i.v.) | Magenschutzwirkung: Minderung des Läsionsindexes (%) (Dosis 3,0 µmol/kg i.v.) | Säuresekretionshemmung: Verringerung der HCl-Sekretion (%) (Dosis 3,0 µmol/kg i.v.) | Magenschutzwirkung: Minderung des Läsionsindexes (%) (Dosis 10,0 µmol/kg i.v.) | Säuresekretionshemmung: Verringerung der HCl-Sekretion (%) (Dosis 10,0 µmol/kg i.v.) | ED50 [1] [µmol/kg] | ED50 [2] [µmol/kg] | Magenschutzwirkung: Minderung des Läsionsindexes (%) (Dosis 0,03 µmol/kg i.v.) | Säuresekretionshemmung: Verringerung der HCl-Sekretion (%) (Dosis 0,03 µmol/kg i.v.)
Cc1nc2c(OC3CCc4ccccc43)cccn2c1C (stereo not drawn) [Beispiel 1, 8-(2,3-Dihydro-1-indenyloxy)-2,3-dimethyl-imidazo[1,2-a]pyridin] | 40 | 19 | 58 | 21 | 75 | 40 | 100 | 62 | 100 | 78 | ~0.2 | ~1.93 | – | –
Cc1nc2c(OC3CCc4ccccc43)cccn2c1CC#N (stereo not drawn) [Beispiel 4, 3-Cyanomethyl-8-(2,3-dihydro-1-indenyloxy)-2-methyl-imidazo[1,2-a]pyridin] | 47 | -10 | 64 | 26 | 86 | 27 | 100 | 83 | – | – | ~0.1 | ~1.34 | 38 | 3
